According to patent US20230114728A1 (Venatorx Pharmaceuticals, Inc., priority 2019, published 2023):
Converted amounts (≈) assume the structure as drawn.

Assays:
[1] = tested on: A. baumannii CDC-0045 producing TEM-1D, OXA-23, and OXA-69; assay: Broth microdilution MIC in iron-depleted CAMHB (IDM); assay type: cell-based; conditions: Acinetobacter baumannii, read-out: Minimum Inhibitory Concentration, CDC-0045
[2] = Bocillin-FL fluorescence polarization competition binding assay, A. baumannii PBP3; conditions: fluorescence polarization competition binding assay using Bocillin-FL; column 3; read-out: 4. baumannii PBP1a Potency
From the text: Example I: Experimental Method for Penicillin-Binding Protein Binding Assays with Bocillin-FL Via Fluorescence Polarization
To determine the ability of boronic acid-based test PBP inhibitors to bind Penicillin Binding Proteins (PBPs), Bocillin-FL (fluorescently-labeled penicillin V; ThermoFisher Scientific) was used in a fluorescence polarization (FP) competition binding assay to assess inhibitor binding to PBP2, PBP3 or PBP4 from Escherichia coli (K12), PBP3 from Pseudomonas aeruginosa (PA01), PBP1a, PBP2 and PBP3 from Acinetobacter baumannii (ATCC 19606), and PBP2 from Neiserria gonorrheae (FA19). PBPs were cloned and purified as described previously (E. coli PBPs, King, D. T, et al., ACS Infectious Diseases 2015, 1, 175-184; P. aeruginosa PBP3, Han et. al., PNAS 2010, 107 (51), 22002-22007; A. baumannii PBPs, Penwell et. al., Antimicrob. Agents Chemother. 2015, 59 (3), 1680-1689; N. gonorrhoeae PBP2, Singh et. al., J Biol. Chem. 2019, 294 (38), 14020-14032). To establish assay conditions for competition binding, enzyme titration/saturation binding experiments were initially performed. Bocillin-FL was prepared at 0.2 μM in a buffer comprised of 50 mM Hepes (pH 8.0), 300 mM NaCl and 5% (v/v) glycerol for reactions with E. coli, P. aeruginosa and N. gonorrhoeae PBPs, and 25 mM Tris (pH 8.0), 200 mM NaCl and 10% (v/v) glycerol and 0.005% (v/v) Tween 20 for reactions with A. baumannii PBPs. Saturation binding was performed by mixing 40 μl of PBP solutions ranging in concentrations from 0-24 μM with 40 μl of the 0.2 μM Bocillin-FL solution, in individual wells of a black 384-well microplate. FP was measured immediately upon mixing (Excitation, 490 nm; Emission, 520 nm; g-factor, 0.96), using a Cytation3 (BioTek) microplate reader and measured continuously for up to 120 minutes. […] The competition binding assay (80 μl final volume) was validated using beta-lactams and PBPs at final concentrations of: 1.5 μM, E. coli PBP3; 0.75 μM, P. aeruginosa PBP3; 1 μM A. baumannii PBP1a; 2.5 μM A. baumannii PBP2; 0.2 μM A. baumannii PBP3; and […] N. gonorrhoeae PBP2. Bocillin-FL was at 0.1 μM (0.05 μM with A. baumannii PBP1a) and beta-lactam concentrations ranged from 0-1000 μM. […] Bocillin-FL was added and the FP immediately measured for up to 60 minutes (90 minutes for E. coli PBP2). […] The beta-lactam potency was reported as the concentration of beta-lactam required to reduce the amount of PBP bound-Bocillin-FL by 50% (EC50). […] Binding assays for boronic acid PBP inhibitors were performed in an identical fashion for the respective PBPs

[3] = tested on: P. aeruginosa (ΔmexAB-oprM); assay: Broth microdilution MIC in iron-depleted CAMHB (IDM); assay type: cell-based; conditions: Pseudomonas aeruginosa, read-out: Minimum Inhibitory Concentration, P. aeruginosa ΔmexAB-OprM
Experimental: (§1) Example IV: In Vitro Antibacterial Assays in Iron-Depleted Cation-Adjusted Mueller-Hinton Broth
(§2) To determine the ability of test compounds to inhibit the growth bacterial strains under conditions of iron-depletion, classic cell based broth microdilution minimum inhibitory concentration (MIC) assays were employed. MIC assays are performed according to CLSI methods except where otherwise noted (CLSI, 2018 and CLSI, 2019). The reference type strain E. coli ATCC 25922 was used to determine the ability of the PBP inhibitors to inhibit the growth of Enterobacteriaceae. Wild-type P. aeruginosa ATCC 27853, A. baumannii ATCC 17978 and A. baumannii ATCC 19606, along with the hyper-permeable P. aeruginosa ATCC 35151, an engineered efflux pump-compromised strain of P. aeruginosa (ΔmexAB-oprM), and an engineered efflux-pump compromised strain of A. baumannii IL123 (ABΔ3-ARAEcPore) were used to determine the ability of PBP inhibitors to penetrate the outer membrane of P. aeruginosa and A. baumannii and assess antibacterial activity against these important gram-negative organisms.
(§3) Briefly, cryo-preserved bacterial cultures of challenge strains are streaked for isolation on appropriate agar medium, in this case cation-adjusted Mueller Hinton agar. Following incubation to allow growth of the colonies, plates are sealed with parafilm and stored refrigerated for up to two weeks. For preparation of assay inoculum and to ensure low variability, at least 5 colonies are picked from the agar plates with an inoculating loop and aseptically transferred to a culture tube containing 3 mL of iron-depleted cation-adjusted Mueller Hinton broth (IDM)—see below for IDM preparation. The broth culture is grown for 3-5 hours at 37° C. with shaking at 200 rpm. Meanwhile, 2-fold serial dilutions of test compounds are conducted in a 96-well plate with a final volume of 75 μL per well at 2-fold the final desired concentration. After the dilution plates are set up the growing cultures are then diluted in a cuvette containing IDM and the optical density is measured at 600 nm. The inoculum is diluted such that 75 μL of this culture in IDM results in a starting bacterial concentration of 2-8×10^5 CFU/mL when added to the dilution plates. The plates are incubated for 16-20 hours for Enterobacteriaceae and Pseudomonas and 20-24 hours for Acinetobacter at 37° C. The MIC values are read visually as the lowest concentration well with no bacterial growth.
(§4) Method for Iron-Depleted Cation-Adjusted Mueller Hinton Broth (IDM) Preparation:
(§5) • Prepare cation-adjusted Mueller Hinton broth as per the manufacturer's recommendations and autoclave. • Add 100 g/L Chelex 100 resin, cover with foil and incubate with stirring for 2 hours • Remove Chelex 100 resin by filtration with 0.45 μm filter flask • Add the following back to the medium: • CaCl2 dihydrate: 82.5 mg/L • MgCl2 hexahydrate: 94.1 mg/L • ZnSO4: 10 μM • Adjust pH of medium to 7.3 with 5 N HCl • Sterilize using a 0.22 µm filter flask

[4] = tested on: P. aeruginosa ATCC 27853; assay: as above; assay type: cell-based; conditions: Pseudomonas aeruginosa, ATCC27853, read-out: Minimum Inhibitory Concentration, P. aeruginosa ATCC 27853
Experimental: as §1, §2, §3, §4, §5

[5] = tested on: A. baumannii CDC-0083 producing NDM-1, PER-7, OXA-23, and OXA-69; assay: as above; assay type: cell-based; conditions: Acinetobacter baumannii, read-out: Minimum Inhibitory Concentration, CDC-0083
Experimental: as §1, §2, §3, §4, §5

[6] = tested on: A. baumannii CDC-0036 OXA-65, and OXA-24; assay: as above; assay type: cell-based; conditions: Acinetobacter baumannii, read-out: Minimum Inhibitory Concentration, CDC-0036
Experimental: as §1, §2, §3, §4, §5

[7] = tested on: A. baumannii ATCC 19606; assay: as above; assay type: cell-based; conditions: Acinetobacter baumannii, ATCC19606, read-out: Minimum Inhibitory Concentration, ATCC 19606
Experimental: as §1, §2, §3, §4, §5

[8] = tested on: P. aeruginosa CDC-0054 producing VIM-4, OXA-50, and PAO; assay: as above; assay type: cell-based; conditions: Pseudomonas aeruginosa, read-out: Minimum Inhibitory Concentration, P. aeruginosa CDC-0054
Experimental: as §1, §2, §3, §4, §5

[9] = tested on: P. aeruginosa ATCC 35151; assay: as above; assay type: cell-based; conditions: Pseudomonas aeruginosa, ATCC35151; iron-depleted MHB (IDM); hyper-permeable strain; read-out: Minimum Inhibitory Concentration, P. aeruginosa ATCC 35151
Experimental: as §1, §2, §3, §4, §5

[10] = tested on: A. baumannii CDC-0033 producing NDM-1, and OXA-94; assay: as above; assay type: cell-based; conditions: Acinetobacter baumannii, read-out: Minimum Inhibitory Concentration, CDC-0033
Experimental: as §1, §2, §3, §4, §5

[11] = tested on: A. baumannii ATCC 17978; assay: as above; assay type: cell-based; conditions: Acinetobacter baumannii, ATCC17978, read-out: Minimum Inhibitory Concentration, ATCC 17978
Experimental: as §1, §2, §3, §4, §5

[12] = tested on: P. aeruginosa CDC-0110; assay: as above; assay type: cell-based; conditions: Pseudomonas aeruginosa, CDC0110, read-out: Minimum Inhibitory Concentration, P. aeruginosa CDC-0110
Experimental: as §2, §3, §4, §5

[13] = tested on: P. aeruginosa CDC-0095 producing OXA-50, and PAO; assay: as above; assay type: cell-based; conditions: Pseudomonas aeruginosa, read-out: Minimum Inhibitory Concentration, P. aeruginosa CDC-0095
Experimental: as §1, §2, §3, §4, §5

CCN1CCN(C(=O)N[C@@H](C(=O)N[C@H]2Cc3ccc(F)c(C(=O)O)c3OB2O)c2c(F)c(F)c(O)c(O)c2Cl)C(=O)C1=O [Example 228, (R)-3-((R)-2-(2-chloro-5,6-difluoro-3,4-dihydroxyphenyl)-2-(4-ethyl-2,3-dioxopiperazine-1-carboxamido)acetamido)-7-fluoro-2-hydroxy-3,4-dihydro-2H-benzo[e][1,2]oxaborinine-8-carboxylic acid]
MIC [1]: 2 to 4 µg/mL (≈ 3.18 to 6.36 µM)
EC50 [2]: 10 to 30 µM
MIC [3]: 0.25 µg/mL (≈ 0.398 µM)
MIC [4]: 0.5 to 1 µg/mL (≈ 0.795 to 1.59 µM)
MIC [5]: 2 to 4 µg/mL (≈ 3.18 to 6.36 µM)
MIC [6]: 2 to 4 µg/mL (≈ 3.18 to 6.36 µM)
MIC [7]: 0.25 µg/mL (≈ 0.398 µM)
MIC [8]: 2 to 4 µg/mL (≈ 3.18 to 6.36 µM)
MIC [9]: 0.25 µg/mL (≈ 0.398 µM)
MIC [10]: 2 to 4 µg/mL (≈ 3.18 to 6.36 µM)
MIC [11]: 0.5 to 1 µg/mL (≈ 0.795 to 1.59 µM)
MIC [12]: 0.5 to 1 µg/mL (≈ 0.795 to 1.59 µM)

CS(=O)(=O)N1CCN(C(=O)N[C@@H](C(=O)N[C@H]2Cc3ccc(F)c(C(=O)O)c3OB2O)c2c(F)c(F)c(O)c(O)c2Cl)C1=O [Example 229, (R)-3-((R)-2-(2-chloro-5,6-difluoro-3,4-dihydroxyphenyl)-2-(3-(methylsulfonyl)-2-oxoimidazolidine-1-carboxamido)acetamido)-7-fluoro-2-hydroxy-3,4-dihydro-2H-benzo[e][1,2]oxaborinine-8-carboxylic acid]
MIC [1]: 8 to 16 µg/mL (≈ 12.3 to 24.6 µM)
EC50 [2]: 10 to 30 µM
MIC [3]: 0.25 µg/mL (≈ 0.384 µM)
MIC [4]: 0.5 to 1 µg/mL (≈ 0.768 to 1.54 µM)
MIC [5]: 2 to 4 µg/mL (≈ 3.07 to 6.15 µM)
MIC [6]: 2 to 4 µg/mL (≈ 3.07 to 6.15 µM)
MIC [7]: 0.5 to 1 µg/mL (≈ 0.768 to 1.54 µM)
MIC [8]: 2 to 4 µg/mL (≈ 3.07 to 6.15 µM)
MIC [9]: 0.25 µg/mL (≈ 0.384 µM)
MIC [10]: 2 to 4 µg/mL (≈ 3.07 to 6.15 µM)
MIC [11]: 0.25 µg/mL (≈ 0.384 µM)
MIC [12]: 0.5 to 1 µg/mL (≈ 0.768 to 1.54 µM)

NCCCN1CCN(C(=O)N[C@@H](C(=O)N[C@H]2Cc3ccc(F)c(C(=O)O)c3OB2O)c2c(F)c(F)c(O)c(O)c2Cl)C(=O)C1=O [Example 227, (R)-3-((R)-2-(4-(3-aminopropyl)-2,3-dioxopiperazine-1-carboxamido)-2-(2-chloro-5,6-difluoro-3,4-dihydroxyphenyl)acetamido)-7-fluoro-2-hydroxy-3,4-dihydro-2H-benzo[e][1,2]oxaborinine-8-carboxylic acid]
MIC [1]: 2 to 4 µg/mL (≈ 3.04 to 6.08 µM)
EC50 [2]: > 100 µM
MIC [3]: 0.25 µg/mL (≈ 0.38 µM)
MIC [4]: 0.5 to 1 µg/mL (≈ 0.76 to 1.52 µM)
MIC [5]: 2 to 4 µg/mL (≈ 3.04 to 6.08 µM)
MIC [6]: 2 to 4 µg/mL (≈ 3.04 to 6.08 µM)
MIC [7]: 0.25 µg/mL (≈ 0.38 µM)
MIC [8]: 0.5 to 1 µg/mL (≈ 0.76 to 1.52 µM)
MIC [9]: 0.25 µg/mL (≈ 0.38 µM)
MIC [10]: 8 to 16 µg/mL (≈ 12.2 to 24.3 µM)
MIC [11]: 0.25 µg/mL (≈ 0.38 µM)
MIC [13]: 2 to 4 µg/mL (≈ 3.04 to 6.08 µM)
MIC [12]: 0.25 µg/mL (≈ 0.38 µM)
